Assay results taken from US4256760A, “Methods of treating mammals suffering from inflammation and pain” (Laboratorios Bago S.A., priority 1979, dated 1981).

Key:
[1] = prior art, cited from earlier work; for anti-inflammatory effect (known): administered to mammals
[2] = Influence on the gastro-intestinal tract (ulceration of the gastric epithelium, Shay et al.); type: in vivo, male rats of Sprague Dawley strain
Method: Influence on the gastro-intestinal tract
Ten male rats of Sprague Dawley strain, weighing 200-300 g were used for each compound tested. According to the method of Shay et al. (Shay, H., Komapov, S. A., Feb. S. S., Meranir, D., Gruenstein, M. Siplet, H. Gastroenterology 5, 43, 1945), under anesthesia, the pylorus was ligated and 4 hours later test compounds were orally administered. The animal was sacrificed 1 hour after compound administration. The stomach was removed and examined for macroscopic damage. The ulceration of the gastric epithelium was evaluated by the following evaluation: 0=no hemorrhage sites; 1=some isolated hemmorrhagic sites; 2=redness of the gastric epithelium; 3=1 to 5 small ulcers with a diameter smaller than 3 mm; 4=many small ulcers; 5=ulcers--greater than 3 mm; 6=perforated ulcer.

[3] = Analgesic activity, tail pressure test; type: in vivo, male mice of Rockland strain; conditions: oral; control (water) = 0; mg/kg: ASA 100, its ester 173, XAA 50, its ester 77, TAA 50, its ester 73.5
Method: Tail pressure test: Ten male mice of Rockland strain weighing 20-25 g were used for each compound tested. The response threshold on applying pressure to the tail was determined with an analgesy meter at 15 and 60 minutes after oral administration of the test compound. The pressure at which a struggle was elicited was read.

[4] = Anti-inflammatory activity (carrageenin induced edema test); type: in vivo, male rats of Spargue Dawley strain; conditions: for % Edema Inhibition, 1 hour / % Edema Inhibition, 3 hours / % Edema Inhibition, 5 hours: oral, 30 min before carrageenin, mg/kg: ASA 100, its ester 173, XAA 120, its ester 186, TAA 60, its ester 88; for % Edema Inhibition, 1 hour: 1 hour after carrageenin; for % Edema Inhibition, 3 hours: 3 hours after carrageenin; for % Edema Inhibition, 5 hours: 5 hours after carrageenin; for anti-inflammatory versus antinociceptive action (in words): conclusion
Method: Anti-inflammatory Activity (Carrageenin induced edema test)
Fifteen to twenty male rats of Spargue Dawley strain weighing 150-200 g, were employed for each compound tested. 0.1 ml of 1% carrageenin saline suspension was injected into the subplantar region of the right hind-paw. The test compounds were orally administered 30 minutes prior to the injection of carrageenin and the foot volume was determined 1,3 and 5 hours after the injection of carrageenin. The percent swelling in the foot was obtained by comparing the volume before and after the injection of carrageenin, and the rate of inhibition in the treated animals was calculated.

[5] = Analgesic activity, Randall-Selitto's test; type: in vivo, male mice of Rockland strain; conditions: oral, 30 min before carrageenin; control (water) = 0; mg/kg: ASA 100, its ester 173, XAA 50, its ester 77, TAA 50, its ester 73.5
Method: Randall-Selitto's method: Ten male mice of Rockland strain weighing 25 g were used for each compound tested. 0.1 ml of 1% carrageenin saline suspension was injected into the subplantar region of the right foot. The test compounds were orally administered 30 minutes before the injection. At hourly intervals for 3 hours after the carrageenin injection, the pain threshold for the inflammed feet was measured, determining the amount of pressure with an analgesy meter.

[6] = oral, pylorus ligated, 1 hour after administration, 0=no hemorrhage sites ... 6=perforated ulcer, control 3.0, mg/kg: phenylbutazone 75, ASA 100, its ester 173, XAA 120, its ester 186, TAA 60, its ester 88
[7] = oral, pylorus ligated, 1 hour after administration, versus control (distilled water) 3.0, doses as for Evaluation

SMILES	anti-inflammatory effect (known) [1]	Evaluation (ulceration of the gastric epithelium, score 0-6) [2, 6]	Increase (of ulceration evaluation) [2, 7]	Relative strength, Tail pressure test [3]	% Edema Inhibition, 1 hour [4] [%]	% Edema Inhibition, 3 hours [4] [%]	% Edema Inhibition, 5 hours [4] [%]	analgesic effect (known) [1]	Relative strength, Randall-Selitto test [5]	Evaluation (ulceration of the gastric epithelium, score 0-6) ([2]; rat, in vivo, po)	Increase (of ulceration evaluation) ([2]; rat, in vivo, po)	anti-inflammatory versus antinociceptive action (in words) [4]
O=C(O)c1cccnc1Nc1cccc(C(F)(F)F)c1 [2 (3'-trifluoromethyl) anilino) pyridine-3-carboxylic acids]	known to have an anti-inflammatory effect	–	–	–	–	–	–	–	–	–	–	–
CC(=O)Oc1ccccc1C(=O)O [Acetylsalicylic acid (ASA), o-Acetylsalicylic acid]	–	4.1	1.1	1.00	3.8	24.8	25.3	known to have an analgesic effect	1.05	–	–	–
O=C(O)c1ccccc1Nc1cccc(C(F)(F)F)c1 [N (3'-trifluoromethylphenyl) anthranylic acid]	known to have an anti-inflammatory effect	–	–	–	24.3	29.3	28.3	–	–	4.9	1.9	–
Cc1cccc(Nc2ccccc2C(=O)O)c1C [N-(2',3'-xylyl) anthranylic acid (XAA), N (2',3'-dimethylphenyl) anthranylic acid]	known to have an anti-inflammatory effect	4.2	1.2	–	–	–	–	–	–	–	–	–
CCCCC1C(=O)N(c2ccccc2)N(c2ccccc2)C1=O [Phenylbutazone]	–	5.5	2.5	–	–	–	–	–	–	–	–	–
Cc1cccc(Nc2ccccc2C(=O)OC2OC(=O)c3ccccc32)c1C (centres unmarked) [Phthalidyl N-(2',3'-xylyl) anthranylate, Phthalydil N(2',3'-xylyl) anthranylate]	–	3.3	0.3	–	27.4	34.2	30.4	–	–	–	–	act as anti-inflammatory agents more tha as antinociceptive agents
CC(=O)Oc1ccccc1C(=O)OC1OC(=O)c2ccccc21 (centres unmarked) [Phthalidyl acetylsalicylate, Phthalydil o-acetylsalicylate]	–	3.0	–	1.82	10.2	30.30	31.0	–	1.54	–	–	–
O=C(OC1OC(=O)c2ccccc21)c1ccccc1Nc1cccc(C(F)(F)F)c1 (centres unmarked) [Phthalydil N(3'-trifluoromethylphenyl) anthranylate]	–	3.5	0.5	–	35.4	40.2	37.4	–	–	–	–	act as anti-inflammatory agents more tha as antinociceptive agents
